Measurements: PMC7761830, “Structure-Based Virtual Screening of Ultra-Large Library Yields Potent Antagonists for a Lipid GPCR” (Biomolecules, 2020)

Columns and labels:
wild-type CysLT1R = target: T1, wild-type CysLT1R (Homo sapiens, UniProt Q9Y271); assay: IP1 production assay, antagonist mode, co-stimulation with EC80 LTD4; type: cell-based; conditions: for inhibition at 30 µM: HEK293, compound 30 µM, LTD4 at EC80, HEK293, wild-type CysLT1R, read-out: inhibition of LTD4-induced IP1 production, single-concentration screen; for Emax: HEK293, read-out: CysLT1R (LTD4) % Max Inhibition ± SEM
T1 construct: expressed in transfected cells; host or cells: HEK293 (ATCC CRL-1573), transient transfection with Lipofectamine 3000
T1 sequence (Q9Y271 1-337): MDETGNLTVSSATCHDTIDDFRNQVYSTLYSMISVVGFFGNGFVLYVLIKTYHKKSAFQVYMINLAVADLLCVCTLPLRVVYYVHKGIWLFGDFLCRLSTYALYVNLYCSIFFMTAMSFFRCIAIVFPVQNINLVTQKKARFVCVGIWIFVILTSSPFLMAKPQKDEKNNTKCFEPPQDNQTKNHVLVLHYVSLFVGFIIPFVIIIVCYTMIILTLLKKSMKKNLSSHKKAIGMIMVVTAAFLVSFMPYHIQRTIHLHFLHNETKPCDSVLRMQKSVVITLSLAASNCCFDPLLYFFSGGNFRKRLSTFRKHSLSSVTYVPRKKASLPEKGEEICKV
Description: (§1) For this assay, we used the Cisbio IP-One kit as previously described. […] At 48 h post-transfection, the media was removed and the cells were washed with fresh Hank’s Balanced Salt Solution (HBSS). […] After compound stimulation, the cells were incubated for 1 h at 37 °C and stimulated with IP1-D2 and Ab-Crypt reagents in Lysis Buffer. The cells were then incubated at room temperature for an additional hour. […] Normalized data were plotted using either the three-parameter or four-parameter EC50/IC50 fits of GraphPad Prism 8 (San Diego). […] Data represent the means ± SEM of at least three independent experiments performed in quadruplicate.

wild-type CysLT2R = target: T2, wild-type CysLT2R (Homo sapiens, UniProt Q9NS75); assay: as above; type: cell-based; conditions: for inhibition at 30 µM: HEK293, compound 30 µM, LTD4 at EC80, HEK293, wild-type CysLT2R, read-out: inhibition of LTD4-induced IP1 production, single-concentration screen; for Emax: HEK293, read-out: CysLT2R (LTD4) % Max Inhibition ± SEM
T2 construct: expressed in transfected cells; host or cells: HEK293 (ATCC CRL-1573), transient transfection with Lipofectamine 3000
T2 sequence (Q9NS75 1-346): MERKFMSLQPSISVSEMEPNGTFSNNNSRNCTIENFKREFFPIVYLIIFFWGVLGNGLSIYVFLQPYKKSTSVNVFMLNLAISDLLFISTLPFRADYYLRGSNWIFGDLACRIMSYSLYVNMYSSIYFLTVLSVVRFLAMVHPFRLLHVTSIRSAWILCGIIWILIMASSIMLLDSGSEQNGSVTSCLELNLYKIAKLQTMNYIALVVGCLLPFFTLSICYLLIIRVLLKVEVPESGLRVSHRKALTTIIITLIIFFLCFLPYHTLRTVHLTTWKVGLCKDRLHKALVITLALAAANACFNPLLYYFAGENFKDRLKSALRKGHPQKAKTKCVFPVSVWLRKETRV
Description: as §1

| SMILES | remaining activity at 30 µM (wild-type CysLT1R) | remaining activity at 30 µM (wild-type CysLT2R) | inhibition at 30 µM (wild-type CysLT1R) | Emax (wild-type CysLT1R) | inhibition at 30 µM (wild-type CysLT2R) | Emax (wild-type CysLT2R) |
| --- | --- | --- | --- | --- | --- | --- |
| O=C(O)[C@@H]1CC[C@H](C(=O)Nc2cccc(-c3nc4ccccc4[nH]3)c2)C1 [BRI-12309] | 87.8% | 87.4% |  |  |  |  |
| CC(Sc1nc(Nc2ccccc2)c2ccccc2n1)C(=O)N1CCNC1=O (stereo not shown) [BRI-12358] | 58% | 73.5% |  |  |  |  |
| CC(Sc1nnc(-c2c[nH]c3ccccc23)n1C1CC1)C(=O)NC(N)=O (stereo not shown) [BRI-12347] | 79.7% | 104% |  |  |  |  |
| O=C(O)CCC(NC(=O)c1cccc(C(F)(F)F)c1)c1ccccc1 (stereo not shown) [BRI-12412] | 91.4% | 63.4% |  |  |  |  |
| CN(CCCc1cc(-c2ccc(F)cc2)n[nH]1)S(=O)(=O)c1[nH]ncc1C(=O)O [BRI-12431] | 90.9% | 63.2% |  |  |  |  |
| NC(=O)c1ccc(NC(=O)CCCCC2SCC3NC(=O)NC32)cc1 (stereo not shown) [BRI-12301] | 91.5% | 88.1% |  |  |  |  |
| CN(CCOc1ccc(OCc2ccccc2)cc1)C(=O)c1cc(=O)[nH]c2ccc(F)cc12 [BRI-12404] | 83.8% | 67.3% |  |  |  |  |
| O=C(Nc1ccccc1C(=O)N1CCN2C(=O)NC(=O)C2C1)c1cccs1 (stereo not shown) [BRI-12307] | 84.6% | 110% |  |  |  |  |
| CC(C)(C)n1nnc(COC(=O)C2OCCc3ccccc32)n1 (stereo not shown) [BRI-12445] | 86.6% | 67.7% |  |  |  |  |
| CCc1ncnc(N[C@H]2C[C@@H](CNC(=O)c3ccn4cc(C)nc4c3)C2)c1F [BRI-12458] | 51.3% | 40.9% | ≥ 50% | 38 ± 16% | ≥ 50% | 13 ± 10% |
| O=C(Cn1ccc(=O)[nH]c1=O)Nc1cccc(C=Cc2ccccn2)c1 [BRI-12354] | 72.7% | 92.8% |  |  |  |  |
| Cc1ccc(-c2nnc(SCC(=O)NC(N)=O)nc2-c2ccc(C)cc2)cc1 [BRI-12360] | 74.3% | 90.5% |  |  |  |  |
| COc1ccc(C2=NN(C(=O)CCC(=O)O)C(c3cccs3)C2)c(O)c1 (stereo not shown) [BRI-12316] | 91% | 90% |  |  |  |  |
| O=C(COC1CCCc2ccccc21)Nc1cccc(NC(=O)NCc2ccncc2)c1 (stereo not shown) [BRI-12405] | 70% | 40.6% |  |  | ≥ 50% | 23 ± 6% |
| COc1cccc(CC(=O)N[C@H]2[C@@H]3CC[C@@H](C3)[C@H]2C(=O)O)c1Cl [BRI-12468] | 89.1% | 64.6% |  |  |  |  |
| Cc1ccc2ncc(C(=O)NC3CN(C(=O)c4cc(C(N)=O)cs4)C3)n2c1 [BRI-12466] | 67.7% | 39% |  |  | ≥ 50% | 12 ± 6% |
| O=C1CCc2cc(NC(=O)C(=O)NCCc3ccc4c(c3)OCO4)ccc2N1 [BRI-12338] | 66.4% | 95.5% |  |  |  |  |
| Cn1cc(S(=O)(=O)N[C@@H]2CC[C@H](C(=O)O)C2)cc1C(N)=O [BRI-12303] | 77.9% | 86.5% |  |  |  |  |
| C[S+]([O-])Cc1cccc(NC(=O)CC2(C(=O)O)Cc3ccccc3C2)c1 (stereo not shown) [BRI-12326] | 79.3% | 71% |  |  |  |  |
| Cc1sc(NC(=O)C(C)(CC(=O)O)C2CCCCC2)c(C(N)=O)c1-c1ccccc1 (stereo not shown) [BRI-12474] | 118% | 106% |  |  |  |  |
| C=C1c2ccccc2C(=O)N1CCC(=O)Nc1cc(C(N)=O)cc(C(N)=O)c1 [BRI-12353] | 83.4% | 96.8% |  |  |  |  |
| O=C(Cn1c(=O)[nH]c(=O)c2ccccc21)N1CCc2[nH]c3ccc(F)cc3c2C1 [BRI-12341] | 69.5% | 61.4% |  |  |  |  |
| O=C1COc2cc(C(=O)N3CCC(c4cc5ccccc5[nH]4)CC3)c(Cl)cc2N1 [BRI-12416] | 70.8% | 80.4% |  |  |  |  |
| Cn1c(Cn2cc(-c3nnco3)ccc2=O)nc2cc(Cl)ccc21 [BRI-12337] | 72% | 91.3% |  |  |  |  |
| Cc1cc(O)c(C(=O)O)cc1S(=O)(=O)Nc1ccc(N2CCCC2)c(F)c1 [BRI-12334] | 47.3% | 57.2% | ≥ 50% | 46 ± 15% | ≥ 50% | 21 ± 8% |
| CC1=C(C(=O)Nc2ccccc2)C(c2ccncc2)n2nc(CCCO)nc2N1 (stereo not shown) [BRI-12325] | 76.1% | 79.3% |  |  |  |  |

More lines, now with the values ahead:

| remaining activity at 30 µM (wild-type CysLT1R) | remaining activity at 30 µM (wild-type CysLT2R) | inhibition at 30 µM (wild-type CysLT1R) | Emax (wild-type CysLT1R) | inhibition at 30 µM (wild-type CysLT2R) | Emax (wild-type CysLT2R) | SMILES |
| --- | --- | --- | --- | --- | --- | --- |
| 21% | 38.1% | ≥ 50% | 33 ± 8% | ≥ 50% | 5 ± 7% | CC1(c2ccc(C(=O)Nc3nc(-c4ccccc4)cs3)cc2)NC(=O)NC1=O (stereo not shown) [BRI-12328] |
| 85.5% | 52.9% |  |  |  |  | NC(=O)Nc1ccc(C(=O)NCc2c(C(=O)O)oc3ccccc23)cc1 [BRI-12447] |
| 76.2% | 62.7% |  |  |  |  | O=C(O)CNC(=O)c1ccc(NS(=O)(=O)c2csc(-c3ccc(Cl)cc3)n2)cc1 [BRI-12433] |
| 57.6% | 62% |  |  |  |  | CCN(CC)C(=O)c1ccc(C(=O)OCc2cc(C(C)=O)no2)cc1 [BRI-12434] |
| 84.7% | 59.9% |  |  |  |  | O=C(O)CCNC(=O)c1nccnc1C(=O)Nc1ccc(Cl)cc1 [BRI-12465] |
| 77.5% | 70.5% |  |  |  |  | Cc1cccc(-n2nnc(C(=O)Nc3ccc4c(c3)NC(=O)CO4)c2C)c1 [BRI-12333] |
| 80.5% | 100% |  |  |  |  | O=C(O)CNC(=O)c1ccc(NS(=O)(=O)c2cccs2)cc1 [BRI-12323] |
| 80% | 70.5% |  |  |  |  | NC(=O)NC(=O)COC(=O)c1ccccc1Nc1cccc(C(F)(F)F)c1 [BRI-12349] |
| 95.8% | 66.4% |  |  |  |  | CCC(=O)Nc1ccc(S(=O)(=O)NC(C)(C)CC(=O)O)cc1 [BRI-12472] |
| 79.8% | 76.5% |  |  |  |  | Cc1ccnc(-c2ccc(NC(=O)COC(C)C)cc2)n1 [BRI-12422] |
| 79.5% | 92.5% |  |  |  |  | CN(C(=O)c1ccc(C(=O)Nc2ccsc2C(N)=O)cc1)c1ccccc1 [BRI-12430] |
| 83% | 70.4% |  |  |  |  | CC(C)(C)CNC(=O)c1ccc(C(=O)Nc2ccccc2CC(=O)O)cc1 [BRI-12407] |
| 90.3% | 59.5% |  |  |  |  | Cc1ccc(C(=O)Nc2ccc(C(=O)NCC(=O)O)cc2)c(O)c1 [BRI-12428] |
| 77% | 65.7% |  |  |  |  | COc1ccc(NC(=O)CN(C)C(=O)c2ccccc2-n2cnnn2)cc1 [BRI-12357] |
| 95.2% | 75% |  |  |  |  | O=C(O)CNC(=O)c1ccc(NC(=O)c2cnc3ccccc3c2)cc1 [BRI-12440] |
| 77.1% | 78.1% |  |  |  |  | Cc1ccc2c(CC(=O)N3CCN(C(=O)c4ccc(C(N)=O)o4)CC3)c[nH]c2c1 [BRI-12462] |
| 82.9% | 65.9% |  |  |  |  | O=C(NCCc1c[nH]c2cc(Cl)ccc12)c1ccc(NC2=NS(=O)(=O)c3ccccc32)cc1 [BRI-12478] |
| 88.3% | 70.9% |  |  |  |  | O=C(O)CNC(=O)c1ccc(NC(=O)CCc2cccc(F)c2F)cc1 [BRI-12441] |
| 79.6% | 68.4% |  |  |  |  | CC(C)c1cc(C(=O)Nc2ccc(C(=O)NCC(=O)O)cc2)nn1C [BRI-12406] |
| 57.6% | 41.1% | ≥ 50% | 44 ± 25% | ≥ 50% | 24 ± 8% | CN(CC(=O)O)C(=O)c1ccc(-c2ccc(NC(=O)C(C)(C)C)nc2)o1 [BRI-12450] |
| 88.3% | 49.5% |  |  | ≥ 50% | 3 ± 7% | NC(=O)CNC(=O)c1ccc(CNC(=O)c2cc3ccc(F)cc3[nH]c2=O)cc1 [BRI-12453] |
| 77.5% | 91% |  |  |  |  | O=C(O)CC(NC(=O)c1ccc(Cl)c(N2CCNC2=O)c1)c1ccccc1 (stereo not shown) [BRI-12311] |
